Measurements taken from EP1247803A2, “Indolinone compounds suitable for modulation of protein kinases” (Sugen, Inc., priority 1996, dated 1998).

Tests used:
FLK-1 receptor = target: T1, FLK-1 receptor (Mus musculus, UniProt P35918); experiment: FLK-1 ELISA (kinase activity of the FLK-1 receptor in FLK-1/NIH3T3 cells, VEGF stimulated); type: cell-based; design: concentration or dose not given beside the values
T1 construct: expressed in transfected cells; host or cells: NIH3T3 C7#3
Protocol: An enzyme linked immunosorbent assay (ELISA) was conducted to measure the catalytic activity of the FLK-1 receptor and more specifically, the inhibition or activation of indolinone compounds on the catalytic activity of the FLK-1 receptor. Specifically, the following assay was conducted to measure catalytic activity of the FLK-1 receptor in FLK-1/NIH3T3 cells.
The materials and protocol for the FLK-1 ELISA assay are as described in International Patent Publication No. WO 96/40116, published December 19, 1996 by Tang et al.
Selected compounds were tested in the FLK-1 ELISA assay.
An ELISA assay was conducted to measure the kinase activity of the FLK-1 receptor and more specifically, the inhibition or activation of protein tyrosine kinase activity on the FLK-1 receptor. Specifically, the following assay was conducted to measure kinase activity of the FLK-1 receptor in FLK-1/NIH3T3 cells.
Materials. The following reagents and supplies were used: • a. […] Cappel goat anti-rabbit IgG (catalog no. 55641); • c. PBS (Gibco Catalog No. 450-1300EB); • d. TBSW Buffer (50 mM Tris (pH 7.2), 150 mM NaCl and 0.1% Tween-20); • e. Ethanolamine stock (10% ethanolamine (pH 7.0), stored at 4°C); • f. HNTG buffer (20mM HEPES buffer (pH 7.5), 150mM NaCl, 0.2% Triton X-100, and 10% glycerol); • g. EDTA (0.5 M (pH 7.0) as a 100X stock); • h. Sodium ortho vanadate (0.5 M as a 100X stock); • i. Sodium pyro phosphate (0.2M as a 100X stock); • j. NUNC 96 well V bottom polypropylene plates (Applied Scientific Catalog No. AS-72092); • k. NIH3T3 C7#3 Cells (FLK-1 expressing cells); • l. DMEM with 1X high glucose L Glutamine (catalog No. 11965-050); • m. FBS, Gibco (catalog no. 16000-028); • n. L-glutamine, Gibco (catalog no. 25030-016); • o. VEGF, PeproTech, Inc. (catalog no. 100-20)(kept as 1 µg/100 µl stock in Milli-Q dH2O and stored at -20°C; • p. Affinity purified anti-FLK-1 antiserum which can be obtained or purified as follows: • 1. Prepare a Tresyl-Activated Agarose/Flk-1-D column by incubating 10 ml of Tresyl-Activated Agarose with 20 mg of purified GST-Flk-1-D fusion protein in 100mM sodium bicarbonate (pH 9.6) buffer overnight at 4 °C. • 2. Wash the column once with PBS. • 3. Block the excess sites on the column with 2 M glycine for 2 hours at 4°C. • 4. Wash the column with PBS. • 5. Incubate the column with Rabbit anti-Flk-1D production bleed for 2 hours at 4 °C. • 6. Wash the column with PBS. • 7. Elute antiserum with 100 mM Citric Acid, pH3.0 and neutralize the eluate immediately with 2 M Tris, pH 9.0. • 8. Dialyize the eluate against PBS overnight at 4 °C with 3 changes of buffer (sample to buffer ratio is 1:100). • 9. Adjust the dialyized antiserum to 5% glycerol and store at -80 °C in small aliquotes. • q.
Protocol. The following protocol was used for conducting the assay: • 1. Coat Corning 96-well elisa plates with 1.0µg per well Cappel Anti-rabbit IgG antibody in 0.1M Na2CO3 pH 9.6. Bring final volume to 150 µl per well. Coat plates overnight at 4°C. Plates can be kept up to two weeks when stored at 4°C. • 2. Grow cells in Growth media(DMEM, supplemental with 2.0mM L-Glutamine, 10% FBS) in suitable culture dishes until confluent at 37°C, 5% CO2. • 3. Harvest cells by trypsinization and seed in Corning 25850 polystyrene 96-well roundbottom cell plates, 25.000 cells/well in 200µl of growth media. • 4. Grow cells at least one day at 37°C, 5% CO2. • 5. Wash cells with D-PBS 1X. • 6. Add 200µl/well of starvation media (DMEM, 2.0mM 1-Glutamine, 0.1% FBS). Incubate overnight at 37°C, 5% CO2. • 7. Dilute Compounds/Extracts 1:20 in polypropylene 96 well plates using starvation media. Dilute dimethylsulfoxide 1:20 for use in control wells. • 8. Remove starvation media from 96 well cell culture plates and add 162 µl of fresh starvation media to each well. • 9. Add 18µl of 1:20 diluted Compound/Extract dilution (from step 7) to each well plus the 1:20 dimethylsulfoxide dilution to the control wells (+/- VEGF), for a final dilution of 1:200 after cell stimulation. […]

PDGF-R = PDGF-R (Homo sapiens, UniProt P09619); experiment: PDGF-R ELISA; type: cell-based
Description: A PDGF-R ELISA is described in International Patent Publication No. WO 96/40116, published December 19, 1996 by Tang et al.

T1 sequence (P35918 20-1345): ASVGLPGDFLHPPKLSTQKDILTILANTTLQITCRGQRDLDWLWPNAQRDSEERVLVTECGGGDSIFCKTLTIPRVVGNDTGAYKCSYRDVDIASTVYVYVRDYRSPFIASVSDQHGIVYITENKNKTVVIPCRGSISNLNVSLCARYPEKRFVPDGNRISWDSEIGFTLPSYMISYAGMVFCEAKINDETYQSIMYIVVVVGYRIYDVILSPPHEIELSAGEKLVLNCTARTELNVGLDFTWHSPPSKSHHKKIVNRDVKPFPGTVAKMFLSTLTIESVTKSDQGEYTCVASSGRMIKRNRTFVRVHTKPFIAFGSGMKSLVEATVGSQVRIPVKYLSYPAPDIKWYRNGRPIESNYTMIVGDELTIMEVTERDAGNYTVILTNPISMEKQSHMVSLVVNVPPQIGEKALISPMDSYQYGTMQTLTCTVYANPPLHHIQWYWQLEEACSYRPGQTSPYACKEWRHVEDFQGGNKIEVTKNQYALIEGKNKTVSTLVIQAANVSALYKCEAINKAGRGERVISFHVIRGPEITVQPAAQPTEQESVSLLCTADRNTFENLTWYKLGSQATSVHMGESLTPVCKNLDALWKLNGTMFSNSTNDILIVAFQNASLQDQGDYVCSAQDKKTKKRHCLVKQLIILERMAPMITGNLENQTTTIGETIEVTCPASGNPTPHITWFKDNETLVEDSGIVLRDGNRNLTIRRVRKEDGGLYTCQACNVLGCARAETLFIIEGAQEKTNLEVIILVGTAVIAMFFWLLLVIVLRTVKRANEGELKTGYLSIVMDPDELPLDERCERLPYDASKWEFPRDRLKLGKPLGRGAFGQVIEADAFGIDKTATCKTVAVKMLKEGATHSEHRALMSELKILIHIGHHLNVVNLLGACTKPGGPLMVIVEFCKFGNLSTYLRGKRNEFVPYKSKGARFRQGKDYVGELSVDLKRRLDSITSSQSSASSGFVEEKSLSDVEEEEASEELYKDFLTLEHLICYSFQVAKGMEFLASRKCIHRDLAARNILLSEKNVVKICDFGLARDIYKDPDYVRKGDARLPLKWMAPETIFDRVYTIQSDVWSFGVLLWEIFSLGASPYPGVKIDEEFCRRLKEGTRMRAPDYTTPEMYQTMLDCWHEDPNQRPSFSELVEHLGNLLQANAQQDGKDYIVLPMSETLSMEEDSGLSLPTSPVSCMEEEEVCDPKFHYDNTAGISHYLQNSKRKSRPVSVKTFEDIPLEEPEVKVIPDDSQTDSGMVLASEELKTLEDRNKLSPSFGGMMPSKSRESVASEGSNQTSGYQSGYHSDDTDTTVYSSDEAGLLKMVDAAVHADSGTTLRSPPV
Chain of PDGF-R (P09619 33-1106, species assumed): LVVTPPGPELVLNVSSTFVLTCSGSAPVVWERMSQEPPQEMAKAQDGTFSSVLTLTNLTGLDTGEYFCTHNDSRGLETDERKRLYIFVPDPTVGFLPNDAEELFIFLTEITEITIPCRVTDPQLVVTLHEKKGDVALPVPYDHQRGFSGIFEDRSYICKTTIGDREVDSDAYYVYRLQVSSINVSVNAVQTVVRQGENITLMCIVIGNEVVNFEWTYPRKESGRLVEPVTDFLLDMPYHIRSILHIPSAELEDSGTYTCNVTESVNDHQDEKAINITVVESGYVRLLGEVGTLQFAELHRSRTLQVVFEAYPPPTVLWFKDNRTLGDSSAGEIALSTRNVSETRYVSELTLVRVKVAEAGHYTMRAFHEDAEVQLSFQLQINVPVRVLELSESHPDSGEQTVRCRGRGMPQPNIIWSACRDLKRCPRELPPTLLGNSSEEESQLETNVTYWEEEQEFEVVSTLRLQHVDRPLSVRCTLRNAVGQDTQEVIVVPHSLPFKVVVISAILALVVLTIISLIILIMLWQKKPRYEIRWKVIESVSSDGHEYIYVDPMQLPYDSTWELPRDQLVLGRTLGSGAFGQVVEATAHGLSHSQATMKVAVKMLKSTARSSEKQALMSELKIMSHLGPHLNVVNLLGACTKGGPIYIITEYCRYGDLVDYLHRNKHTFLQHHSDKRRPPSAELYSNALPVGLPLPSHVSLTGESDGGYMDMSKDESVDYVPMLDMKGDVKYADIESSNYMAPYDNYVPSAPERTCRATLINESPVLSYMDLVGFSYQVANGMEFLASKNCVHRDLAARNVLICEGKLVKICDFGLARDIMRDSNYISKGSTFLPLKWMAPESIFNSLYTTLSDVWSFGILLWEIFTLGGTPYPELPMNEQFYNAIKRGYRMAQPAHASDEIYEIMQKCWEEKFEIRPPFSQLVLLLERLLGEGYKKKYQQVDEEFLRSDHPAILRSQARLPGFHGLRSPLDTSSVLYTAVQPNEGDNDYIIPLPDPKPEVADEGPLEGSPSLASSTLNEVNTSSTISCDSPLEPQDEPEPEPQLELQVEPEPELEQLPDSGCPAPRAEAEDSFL

Structure (SMILES) | Fik Kinase %Inhibition (FLK-1 receptor) [%] | PDGF Kinase %Inhibition (PDGF-R) [%]
COc1cccc(O)c1C=C1C(=O)Nc2c(Br)cc(Br)cc21 [10717/A10] | -3.3 | –
CNS(=O)(=O)c1ccc2c(c1)C(=Cc1c(C)[nH]c(C(=O)OC)c1C(=O)OC)C(=O)N2 [10718/D07] | 7.8 | –
CNS(=O)(=O)c1ccc2c(c1)C(=Cc1ccc(Cl)c([N+](=O)[O-])c1)C(=O)N2 [10718/D08] | 3.9 | –
CNS(=O)(=O)c1ccc2c(c1)C(=Cc1ccc(O)c(C)c1O)C(=O)N2 [10718/D09] | -9.1 | –
CNS(=O)(=O)c1ccc2c(c1)C(=Cc1ccco1)C(=O)N2 [10718/D10] | 15.0 | –
CNS(=O)(=O)c1ccc2c(c1)C(=Cc1ccc([N+](=O)[O-])o1)C(=O)N2 [10718/D11] | 13.3 | –
CCOC(=O)c1c(C)[nH]c(C=C2C(=O)Nc3ccc(S(=O)(=O)Nc4ccc(C(F)(F)F)cc4)cc32)c1C [10718/E02] | 19.7 | –
COc1cc(Br)c(O)c(C=C2C(=O)Nc3ccc(S(=O)(=O)Nc4ccc(C(F)(F)F)cc4)cc32)c1 [10718/E03] | 10.0 | –
CNS(=O)(=O)c1ccc2c(c1)C(=Cc1cc(I)c(OC)c(C(C)(C)C)c1)C(=O)N2 [10732/D11] | 18.8 | 18.9
O=C1Nc2ccc(S(=O)(=O)Nc3ccc(C(F)(F)F)cc3)cc2C1=CC(c1cccs1)C(F)(F)F (stereo not shown) [10732/E02] | 13.1 | 4.8
COc1c(C(C)C)cc(C=C2C(=O)Nc3ccc(S(=O)(=O)Nc4ccc(C(F)(F)F)cc4)cc32)cc1C(C)C [10732/E03] | 16.7 | 48.7
CC(C)c1cc(C=C2C(=O)Nc3ccc(S(=O)(=O)Nc4ccc(C(F)(F)F)cc4)cc32)cc(C(C)C)c1Oc1ccccc1 [10732/E04] | 15.8 | 29.5
COc1ccc(C=C2C(=O)Nc3ccc(S(=O)(=O)Nc4ccc(C(F)(F)F)cc4)cc32)cc1C(C)(C)C [10732/E05] | 18.7 | 41.1
CC(C)(C)c1cc(C=C2C(=O)Nc3ccc(S(=O)(=O)Nc4ccc(C(F)(F)F)cc4)cc32)ccc1OCc1ccccc1 [10732/E06] | 2.8 | 16.9
COc1c(Br)cc(C=C2C(=O)Nc3ccc(S(=O)(=O)Nc4ccc(C(F)(F)F)cc4)cc32)cc1C(C)(C)C [10732/E07] | 21.3 | 42.2
CC(C)(C)c1cc(C=C2C(=O)Nc3ccc(S(=O)(=O)Nc4ccc(C(F)(F)F)cc4)cc32)cc(Br)c1OCc1ccccc1 [10732/E08] | 13.6 | 32.6
COc1c(Cl)cc(C=C2C(=O)Nc3ccc(S(=O)(=O)Nc4ccc(C(F)(F)F)cc4)cc32)cc1C(C)(C)C [10732/E09] | 15.3 | 46.7
CC(C)(C)c1cc(C=C2C(=O)Nc3ccc(S(=O)(=O)Nc4ccc(C(F)(F)F)cc4)cc32)cc(Cl)c1OCc1ccccc1 [10732/E10] | 16.7 | 35.6
COc1c(I)cc(C=C2C(=O)Nc3ccc(S(=O)(=O)Nc4ccc(C(F)(F)F)cc4)cc32)cc1C(C)(C)C [10732/E11] | 16.2 | 47.7
O=C1Nc2ccc(S(=O)(=O)N3CCOCC3)cc2C1=CC(c1cccs1)C(F)(F)F (stereo not shown) [10732/F02] | 7.0 | -9.4

Structure (SMILES) | Fik Kinase %Inhibition (FLK-1 receptor) [%] | PDGF Kinase %Inhibition (PDGF-R) [%]
COc1c(C(C)C)cc(C=C2C(=O)Nc3ccc(S(=O)(=O)N4CCOCC4)cc32)cc1C(C)C [10732/F03] | 31.9 | 51.8
CC(C)c1cc(C=C2C(=O)Nc3ccc(S(=O)(=O)N4CCOCC4)cc32)cc(C(C)C)c1Oc1ccccc1 [10732/F04] | 16.2 | 23.5
COc1ccc(C=C2C(=O)Nc3ccc(S(=O)(=O)N4CCOCC4)cc32)cc1C(C)(C)C [10732/F05] | 37.3 | 12.8
CC(C)(C)c1cc(C=C2C(=O)Nc3ccc(S(=O)(=O)N4CCOCC4)cc32)ccc1OCc1ccccc1 [10732/F06] | 11.6 | 0.2
COc1c(Br)cc(C=C2C(=O)Nc3ccc(S(=O)(=O)N4CCOCC4)cc32)cc1C(C)(C)C [10732/F07] | 31.0 | 38.6
CC(C)(C)c1cc(C=C2C(=O)Nc3ccc(S(=O)(=O)N4CCOCC4)cc32)cc(Br)c1OCc1ccccc1 [10732/F08] | 12.6 | 14.9
COc1c(Cl)cc(C=C2C(=O)Nc3ccc(S(=O)(=O)N4CCOCC4)cc32)cc1C(C)(C)C [10732/F09] | 25.6 | 25.5
CC(C)(C)c1cc(C=C2C(=O)Nc3ccc(S(=O)(=O)N4CCOCC4)cc32)cc(Cl)c1OCc1ccccc1 [10732/F10] | 14.1 | 15.9
COc1c(I)cc(C=C2C(=O)Nc3ccc(S(=O)(=O)N4CCOCC4)cc32)cc1C(C)(C)C [10732/F11] | 21.9 | 77.5
O=C1Nc2ccc(CCCl)cc2C1=CC(c1cccs1)C(F)(F)F (stereo not shown) [10732/G02] | 8.1 | 10.3
COc1c(C(C)C)cc(C=C2C(=O)Nc3ccc(CCCl)cc32)cc1C(C)C [10732/G03] | 0.8 | 36.1
CC(C)c1cc(C=C2C(=O)Nc3ccc(CCCl)cc32)cc(C(C)C)c1Oc1ccccc1 [10732/G04] | 12.6 | 25.0
COc1ccc(C=C2C(=O)Nc3ccc(CCCl)cc32)cc1C(C)(C)C [10732/G05] | 17.2 | 15.4
CC(C)(C)c1cc(C=C2C(=O)Nc3ccc(CCCl)cc32)ccc1OCc1ccccc1 [10732/G06] | 26.5 | 0.2
COc1c(Br)cc(C=C2C(=O)Nc3ccc(CCCl)cc32)cc1C(C)(C)C [10732/G07] | 4.6 | 21.4
CC(C)(C)c1cc(C=C2C(=O)Nc3ccc(CCCl)cc32)cc(Br)c1OCc1ccccc1 [10732/G08] | 10.0 | 37.6
COc1c(Cl)cc(C=C2C(=O)Nc3ccc(CCCl)cc32)cc1C(C)(C)C [10732/G09] | 16.9 | 9.8
CC(C)(C)c1cc(C=C2C(=O)Nc3ccc(CCCl)cc32)cc(Cl)c1OCc1ccccc1 [10732/G10] | 14.0 | 20.4
COc1c(I)cc(C=C2C(=O)Nc3ccc(CCCl)cc32)cc1C(C)(C)C [10732/G11] | 10.9 | 38.6
